# Results taken from paper PMC5811830 (Journal of Clinical Pharmacology, 2017).
# Where two headings read alike, the source gives them in different places.
# Key:
# [1] = assay type: in vivo, human; details: for AUC0-264 geometric least-squares mean ratio (90%CI) (test/reference) / Cmax geometric least-squares mean ratio (90%CI) (test/reference): with vs without clarithromycin
# [2] = tested on: CYP3A4; details: higher than clinical concentrations; cited from earlier work
# [3] = Treatment-emergent adverse events and on-study deaths in the DDI study arms; assay type: in vivo, human
# [4] = assay type: in vivo, human; details: for Reduction of Cmax in the presence of rifampin: ixazomib 4 mg oral, rifampin 600 mg once daily; for AUC0-last geometric least-squares mean ratio (90%CI) (test/reference) / Cmax geometric least-squares mean ratio (90%CI) (test/reference): with vs without rifampin
# [5] = tested on: CYP2C19; details: higher than clinical concentrations; cited from earlier work
# [6] = assay type: in vivo, human; details: for Cmax geometric least-squares mean ratio (90%CI) (test/reference): with vs without ketoconazole
# [7] = tested on: P‐glycoprotein (P‐gp); details: in vitro data; cited from earlier work
# [8] = tested on: CYP2B6; details: higher than clinical concentrations; cited from earlier work
# [9] = tested on: CYP2D6; details: higher than clinical concentrations; cited from earlier work
# [10] = Period effect analysis; assay type: in vivo, human; details: pooled ketoconazole DDI, food effect and relative bioavailability arms
# [11] = tested on: CYP2C8; details: higher than clinical concentrations; cited from earlier work
# [12] = humans; cited from earlier work
# [13] = tested on: CYP1A2; details: higher than clinical concentrations; cited from earlier work
# [14] = clinically relevant exposures; cited from earlier work
# [15] = tested on: CYP2C9; details: higher than clinical concentrations; cited from earlier work
# [16] = tested on: intestinal P‐gp; details: multiple doses of rifampin, duodenal biopsies, Western blotting; cited from earlier work
# [17] = cited from earlier work
# [18] = Clarithromycin arm (N = 21), cycle 1 only
# [19] = Rifampin arm (N = 38), test and reference groups
# [20] = test condition: ixazomib 4 mg oral day 8 with rifampin 600 mg once daily, N = 16
compound,measurement,setting,value
CC(C)C[C@H](NC(=O)CNC(=O)c1cc(Cl)ccc1Cl)B(O)O [ixazomib],Increase in AUC with the strong CYP3A inhibitors ketoconazole and clarithromycin,"[1]; observed, ketoconazole and clarithromycin DDI studies",≤ 11%
same,AUC0-264 geometric least-squares mean ratio (90%CI) (test/reference),[1],1.11
same,Cmax geometric least-squares mean ratio (90%CI) (test/reference),[1],0.96
same,AUC0-264 geometric least-squares mean ratio (90%CI) (test/reference),[1]; listed as Ixazomib,1.11 (0.86‐1.43)
same,Cmax geometric least-squares mean ratio (90%CI) (test/reference),[1]; listed as Ixazomib,0.96 (0.67‐1.36)
same,Estimated relative contribution of 3A4 to metabolism,[2],42%
same,"Any AE, n (%)",[3]; [18],16 (76) n (%)
same,"Any drug-related AE, n (%)",[3]; [18],4 (19) n (%)
same,"Any drug-related grade ≥3 AE, n (%)",[3]; [18],0 n (%)
same,"Any drug-related serious AE, n (%)",[3]; [18],0 n (%)
same,"Any grade ≥3 AE, n (%)",[3]; [18],2 (10) n (%)
same,"Any serious AE, n (%)",[3]; [18],2 (10) n (%)
same,"On-study deaths, n (%)",[3]; [18],0 n (%)
same,"AE leading to discontinuation, n (%)",[3]; Ketoconazole arm (N = 29),8 (28) n (%)
same,"Any AE, n (%)",[3]; Ketoconazole arm (N = 29),29 (100) n (%)
same,"Any drug-related AE, n (%)",[3]; Ketoconazole arm (N = 29),27 (93) n (%)
same,"Any drug-related grade ≥3 AE, n (%)",[3]; Ketoconazole arm (N = 29),10 (34) n (%)
same,"Any drug-related serious AE, n (%)",[3]; Ketoconazole arm (N = 29),3 (10) n (%)
same,"Any grade ≥3 AE, n (%)",[3]; Ketoconazole arm (N = 29),18 (62) n (%)
same,"Any serious AE, n (%)",[3]; Ketoconazole arm (N = 29),12 (41) n (%)
same,"On-study deaths, n (%)",[3]; Ketoconazole arm (N = 29),2 (7) n (%)
same,"AE leading to discontinuation, n (%)",[3]; [19],4 (11) n (%)
same,"Any AE, n (%)",[3]; [19],37 (97) n (%)
same,"Any drug-related AE, n (%)",[3]; [19],32 (84) n (%)
same,"Any drug-related grade ≥3 AE, n (%)",[3]; [19],7 (18) n (%)
same,"Any drug-related serious AE, n (%)",[3]; [19],2 (5) n (%)
same,"Any grade ≥3 AE, n (%)",[3]; [19],15 (39) n (%)
same,"Any serious AE, n (%)",[3]; [19],7 (18) n (%)
same,"On-study deaths, n (%)",[3]; [19],1 (3) n (%)
same,"AE leading to discontinuation, n (%)",[3]; Total (N = 88),13 (15) n (%)
same,"Any AE, n (%)",[3]; Total (N = 88),82 (93) n (%)
same,"Any drug-related AE, n (%)",[3]; Total (N = 88),63 (72) n (%)
same,"Any drug-related grade ≥3 AE, n (%)",[3]; Total (N = 88),17 (19) n (%)
same,"Any drug-related serious AE, n (%)",[3]; Total (N = 88),5 (6) n (%)
same,"Any grade ≥3 AE, n (%)",[3]; Total (N = 88),35 (40) n (%)
same,"Any serious AE, n (%)",[3]; Total (N = 88),21 (24) n (%)
same,"On-study deaths, n (%)",[3]; Total (N = 88),3 (3) n (%)
same,Patients with a study drug-related AE,[3]; across the 3 DDI study arms (N = 88),72%
same,Patients with study drug-related grade 3 AEs,"[3]; across the 3 study arms, 17 patients",19%
same,Patients with grade ≥3 AEs,"[3]; across the 3 study arms, 35 patients",40%
same,Study drug-related grade 3 AE: thrombocytopenia,"[3]; across the 3 study arms, n = 2",2%
same,Study drug-related grade 3 AE: vomiting,"[3]; across the 3 study arms, n = 2",2%
same,Study drug-related grade 3 AE: diarrhea,"[3]; across the 3 study arms, n = 3",3%
same,Study drug-related grade 3 AE: nausea,"[3]; across the 3 study arms, n = 3",3%
same,Study drug-related grade 3 AE: fatigue,"[3]; across the 3 study arms, n = 9",10%
same,Study drug-related AE: weight loss,"[3]; across the 3 study arms, n = 10",11%
same,Study drug-related AE: dehydration,"[3]; across the 3 study arms, n = 12",14%
same,Study drug-related AE: asthenia,"[3]; across the 3 study arms, n = 13",15%
same,Study drug-related AE: decreased appetite,"[3]; across the 3 study arms, n = 15",17%
same,Reduction of Cmax in the presence of rifampin,[4],54%
same,Reduction of Cmax in the presence of rifampin,[4]; listed as Ixazomib,approximately 54%
same,"Geometric mean AUC0-last, h·ng/mL (%CV)",[4]; [20],232 (50) h·ng/mL
same,"Geometric mean Cmax, ng/mL (%CV)",[4]; [20],25.7 (50) ng/mL
same,"Median Tmax, h (range)",[4]; [20],1.45 (0.5‐4.12) h
same,AUC0-last geometric least-squares mean ratio (90%CI) (test/reference),[4],0.26
same,Cmax geometric least-squares mean ratio (90%CI) (test/reference),[4],0.46
same,AUC0-last geometric least-squares mean ratio (90%CI) (test/reference),[4]; listed as Ixazomib,0.26 (0.18‐0.37)
same,Cmax geometric least-squares mean ratio (90%CI) (test/reference),[4]; listed as Ixazomib,0.46 (0.29‐0.73)
same,Estimated relative contribution of 2C19 to metabolism,[5],5%
same,"Geometric mean AUC0-264, h·ng/mL (%CV), not corrected for the period effect","[6]; test condition: ixazomib 2.5 mg oral, period 2 with ketoconazole",1150 (46) h·ng/mL
same,Cmax geometric least-squares mean ratio (90%CI) (test/reference),[6],1.01
same,Cmax geometric least-squares mean ratio (90%CI) (test/reference),[6]; listed as Ixazomib,1.01 (0.78‐1.30)
same,P-gp substrate status,[7],low‐affinity substrate
same,Estimated relative contribution of 2B6 to metabolism,[8],16%
same,Estimated relative contribution of 2D6 to metabolism,[9],5%
same,"Magnitude of the period effect (period 2 AUC vs period 1 AUC), pooled analysis",[10],1.91 fold
same,Estimated relative contribution of 2C8 to metabolism,[11],6%
same,Orally administered radiolabeled ixazomib recovered in urine,[12],62%
same,Urinary excretion representing the parent drug,[12],< 3.5%
same,Estimated relative contribution of 1A2 to metabolism,[13],26%
same,Effect on the QTc interval,[14],does not prolong the QTc interval
same,Estimated relative contribution of 2C9 to metabolism,[15],< 1%
CO[C@H]1/C=C/O[C@@]2(C)Oc3c(C)c(O)c4c(O)c(c(/C=N/N5CCN(C)CC5)c(O)c4c3C2=O)NC(=O)/C(C)=C\C=C\[C@H](C)[C@H](O)[C@@H](C)[C@@H](O)[C@@H](C)[C@H](OC(C)=O)[C@@H]1C [rifampin],Assumed increase in intestinal P-gp activity,[16],4 fold
COc1cc2nccc(Oc3ccc(NC(=O)Nc4cc(C)on4)c(Cl)c3)c2cc1OC [tivozanib],Effect of steady-state ketoconazole on tivozanib AUC,[17]; ketoconazole 400 mg/day,did not alter
same,Decrease in tivozanib AUC with rifampin,[17]; rifampin 600 mg/day,53%
